Experimental data reported in the NIST ThermoML archive (doi:10.1016/j.jct.2013.01.013).
± gives the expanded uncertainty stated by the source.

Tests used:
[1] = 101 kPa, Liquid; for viscosity: Capillary tube (Ostwald / Ubbelohde) method; for speed of sound: Linear variable-path acoustic interferometer; for mass density: Pycnometric method
[2] = xn = mol fraction of the nth substance listed; conditions: 101 kPa, Liquid, x2 = 0; for viscosity: Capillary tube (Ostwald / Ubbelohde) method; for speed of sound: Linear variable-path acoustic interferometer; for mass density: Pycnometric method

SMILES: CC(=O)N(C)C [N,N-dimethylethanamide]
- viscosity ([1]; 288.15 K): 1.15 ± 0.0095 mPa·s
- speed of sound ([1]; 288.15 K): 1500.2 ± 1.6 m/s
- mass density ([1]; 288.15 K): 945.5 ± 0.27 kg/m3
- viscosity ([1]; 293.15 K): 1.038 ± 0.0086 mPa·s
- speed of sound ([1]; 293.15 K): 1482.6 ± 1.6 m/s
- mass density ([1]; 293.15 K): 941 ± 0.26 kg/m3
- viscosity ([1]; 298.15 K): 0.9443 ± 0.0079 mPa·s
- speed of sound ([1]; 298.15 K): 1462.1 ± 1.6 m/s
- mass density ([1]; 298.15 K): 936.5 ± 0.27 kg/m3
- viscosity ([1]; 303.15 K): 0.8792 ± 0.0075 mPa·s
- speed of sound ([1]; 303.15 K): 1441.8 ± 1.6 m/s
- mass density ([1]; 303.15 K): 932 ± 0.28 kg/m3
- viscosity ([1]; 308.15 K): 0.8179 ± 0.007 mPa·s
- speed of sound ([1]; 308.15 K): 1420.7 ± 1.6 m/s
- mass density ([1]; 308.15 K): 927.5 ± 0.29 kg/m3
- viscosity ([1]; 313.15 K): 0.7696 ± 0.0067 mPa·s
- speed of sound ([1]; 313.15 K): 1402.6 ± 1.6 m/s
- mass density ([1]; 313.15 K): 923 ± 0.3 kg/m3
- viscosity ([1]; 318.15 K): 0.7346 ± 0.0064 mPa·s
- speed of sound ([1]; 318.15 K): 1383.5 ± 1.5 m/s
- mass density ([1]; 318.15 K): 918.5 ± 0.31 kg/m3

SMILES: CC(=O)N(C)C [N,N-dimethylethanamide] + C=C(C)C(=O)OC
- viscosity ([2]; 288.15 K): 1.15 ± 0.0095 mPa·s
- speed of sound ([2]; 288.15 K): 1500.2 ± 1.6 m/s
- mass density ([2]; 288.15 K): 945.5 ± 0.27 kg/m3
- viscosity ([2]; 293.15 K): 1.038 ± 0.0086 mPa·s
- speed of sound ([2]; 293.15 K): 1482.6 ± 1.6 m/s
- mass density ([2]; 293.15 K): 941 ± 0.26 kg/m3
- viscosity ([2]; 298.15 K): 0.9443 ± 0.0079 mPa·s
- speed of sound ([2]; 298.15 K): 1462.1 ± 1.6 m/s
- mass density ([2]; 298.15 K): 936.5 ± 0.27 kg/m3
- viscosity ([2]; 303.15 K): 0.8792 ± 0.0075 mPa·s
- speed of sound ([2]; 303.15 K): 1441.8 ± 1.6 m/s
- mass density ([2]; 303.15 K): 932 ± 0.28 kg/m3
- viscosity ([2]; 308.15 K): 0.8179 ± 0.007 mPa·s
- speed of sound ([2]; 308.15 K): 1420.7 ± 1.6 m/s
- mass density ([2]; 308.15 K): 927.5 ± 0.29 kg/m3
- viscosity ([2]; 313.15 K): 0.7696 ± 0.0067 mPa·s
- speed of sound ([2]; 313.15 K): 1402.6 ± 1.6 m/s
- mass density ([2]; 313.15 K): 923 ± 0.3 kg/m3
- viscosity ([2]; 318.15 K): 0.7346 ± 0.0064 mPa·s
- speed of sound ([2]; 318.15 K): 1383.5 ± 1.5 m/s
- mass density ([2]; 318.15 K): 918.5 ± 0.31 kg/m3

SMILES: CN(C)C=O [dimethylformamide]
- viscosity ([1]; 288.15 K): 0.9452 ± 0.0081 mPa·s
- speed of sound ([1]; 288.15 K): 1503.3 ± 1.7 m/s
- mass density ([1]; 288.15 K): 953.61 ± 0.29 kg/m3
- viscosity ([1]; 293.15 K): 0.8685 ± 0.0075 mPa·s
- speed of sound ([1]; 293.15 K): 1485.8 ± 1.7 m/s
- mass density ([1]; 293.15 K): 949.1 ± 0.28 kg/m3
- viscosity ([1]; 298.15 K): 0.8123 ± 0.0071 mPa·s
- speed of sound ([1]; 298.15 K): 1469.5 ± 1.6 m/s
- mass density ([1]; 298.15 K): 944.6 ± 0.29 kg/m3
- viscosity ([1]; 303.15 K): 0.7647 ± 0.0067 mPa·s
- speed of sound ([1]; 303.15 K): 1448.8 ± 1.6 m/s
- mass density ([1]; 303.15 K): 940.1 ± 0.3 kg/m3
- viscosity ([1]; 308.15 K): 0.7189 ± 0.0064 mPa·s
- speed of sound ([1]; 308.15 K): 1429.1 ± 1.6 m/s
- mass density ([1]; 308.15 K): 935.6 ± 0.31 kg/m3
- viscosity ([1]; 313.15 K): 0.6851 ± 0.0061 mPa·s
- speed of sound ([1]; 313.15 K): 1411.5 ± 1.6 m/s
- mass density ([1]; 313.15 K): 931.1 ± 0.32 kg/m3
- viscosity ([1]; 318.15 K): 0.6642 ± 0.006 mPa·s
- speed of sound ([1]; 318.15 K): 1392.6 ± 1.6 m/s
- mass density ([1]; 318.15 K): 926.6 ± 0.33 kg/m3

SMILES: CN(C)C=O [dimethylformamide] + C=C(C)C(=O)OC
- viscosity ([2]; 288.15 K): 0.9452 ± 0.0081 mPa·s
- speed of sound ([2]; 288.15 K): 1503.3 ± 1.7 m/s
- mass density ([2]; 288.15 K): 953.61 ± 0.29 kg/m3
- viscosity ([2]; 293.15 K): 0.8685 ± 0.0075 mPa·s
- speed of sound ([2]; 293.15 K): 1485.8 ± 1.7 m/s
- mass density ([2]; 293.15 K): 949.1 ± 0.28 kg/m3
- viscosity ([2]; 298.15 K): 0.8123 ± 0.0071 mPa·s
- speed of sound ([2]; 298.15 K): 1469.5 ± 1.6 m/s
- mass density ([2]; 298.15 K): 944.6 ± 0.29 kg/m3
- viscosity ([2]; 303.15 K): 0.7647 ± 0.0067 mPa·s
- speed of sound ([2]; 303.15 K): 1448.8 ± 1.6 m/s
- mass density ([2]; 303.15 K): 940.1 ± 0.3 kg/m3
- viscosity ([2]; 308.15 K): 0.7189 ± 0.0064 mPa·s
- speed of sound ([2]; 308.15 K): 1429.1 ± 1.6 m/s
- mass density ([2]; 308.15 K): 935.6 ± 0.31 kg/m3
- viscosity ([2]; 313.15 K): 0.6851 ± 0.0061 mPa·s
- speed of sound ([2]; 313.15 K): 1411.5 ± 1.6 m/s
- mass density ([2]; 313.15 K): 931.1 ± 0.32 kg/m3
- viscosity ([2]; 318.15 K): 0.6642 ± 0.006 mPa·s
- speed of sound ([2]; 318.15 K): 1392.6 ± 1.6 m/s
- mass density ([2]; 318.15 K): 926.6 ± 0.33 kg/m3

SMILES: C=C(C)C(=O)OC [methyl methacrylate]
- viscosity ([1]; 288.15 K): 0.634 ± 0.0056 mPa·s
- speed of sound ([1]; 288.15 K): 1216.8 ± 1.4 m/s
- mass density ([1]; 288.15 K): 949.1 ± 0.26 kg/m3
- viscosity ([1]; 293.15 K): 0.5903 ± 0.0053 mPa·s
- speed of sound ([1]; 293.15 K): 1200.5 ± 1.4 m/s
- mass density ([1]; 293.15 K): 943.37 ± 0.25 kg/m3
- viscosity ([1]; 298.15 K): 0.5544 ± 0.005 mPa·s
- speed of sound ([1]; 298.15 K): 1183.6 ± 1.4 m/s
- mass density ([1]; 298.15 K): 937.63 ± 0.25 kg/m3
- viscosity ([1]; 303.15 K): 0.5251 ± 0.0048 mPa·s
- speed of sound ([1]; 303.15 K): 1168.5 ± 1.4 m/s
- mass density ([1]; 303.15 K): 931.89 ± 0.26 kg/m3
- viscosity ([1]; 308.15 K): 0.496 ± 0.0046 mPa·s
- speed of sound ([1]; 308.15 K): 1152.6 ± 1.3 m/s
- mass density ([1]; 308.15 K): 926.15 ± 0.27 kg/m3
- viscosity ([1]; 313.15 K): 0.4723 ± 0.0044 mPa·s
- speed of sound ([1]; 313.15 K): 1135.4 ± 1.3 m/s
- mass density ([1]; 313.15 K): 920.41 ± 0.28 kg/m3
- viscosity ([1]; 318.15 K): 0.4499 ± 0.0042 mPa·s
- speed of sound ([1]; 318.15 K): 1118.3 ± 1.3 m/s
- mass density ([1]; 318.15 K): 914.66 ± 0.29 kg/m3
